Experimental data taken from US20090326014A1, “Use of 5-ht7 receptor agonists for the treatment of pain” (Laboratorios Del Dr. Esteve, S.A., priority 2006, published 2009).

Key:
h5-HT1E = h5-HT1E (Homo sapiens, UniProt P28566); assay: Radioligand binding assay, h5-HT1E; details: read-out: Affinity [ki (nM)]
h5-HT7 = h5-HT7 (Homo sapiens, UniProt P34969); details: read-out: Affinity [ki (nM)]
[1] = test system: thermal hyperalgesia induced by partial sciatic nerve ligation; assay: Partial sciatic nerve ligation, plantar test (thermal hyperalgesia)
Experimental: Animals were housed in groups of five, provided with food and water ad libitum and kept in controlled laboratory conditions with the temperature maintained at 21±1° C. and light in 12 h cycles (on at 07:00 h and off at 19:00 h). Experiments were carried out in a soundproof and air-regulated experimental room.
The rest of compounds were prepared as aqueous solutions. Doses were calculated based on the molecular weight of the free base. All the compounds and vehicles (1% DMSO or physiological saline) were administered in a volume of 5 ml/kg through the subcutaneous (s.c.) route. When two compounds were co-administered, they were injected s.c. in opposite flanks of the mice.
This model consists of partial injury to the sciatic nerve at mid-thigh level. All surgical procedures for nerve injury were performed under isoflurane (IsoFlo®, Abbott-Laboratorios Dr. Esteve, S. A., Barcelona, Spain) anesthesia (induction: 3%; surgery: 2%). Briefly, mice were anaesthetized and the common sciatic nerve was exposed at the level of the mid-thigh of the right hind paw. Partial nerve injury was produced at about 1 cm proximal to the nerve trifurcation by tying a tight ligature around approximately 33 to 50% the diameter of the sciatic nerve using 9-0 non-absorbable virgin silk suture (Alcon surgical, Texas, USA). Ligature enclosed the outer ⅓-½ sciatic nerve whereas the rest of the nerve (inner ⅔-½) was leaved “uninjured”. The muscle was then stitched with 6-0 silk suture and the skin incision was closed with wound clips. Control, sham-operated mice underwent the same surgical procedure and the sciatic nerve was exposed, but not ligated. After surgery, animals were allowed to recover for 5 days prior to initiation of nociceptive behavioral tests (see experimental protocol below).
The effectiveness of acute treatments with 5-HT7 ligands compared to vehicle on the expression of neuropathic pain was investigated based on the following experimental protocol. […] After the habituation period, pre-injury baseline responses in each test were established during 2 consecutive days. One day after baseline measurements, nerve injury or sham operation was induced as previously described. Mice were then tested in either the von Frey or the plantar test on day 5 after the surgical procedure to monitor post-injury responses. Post-injury baseline responses of mice treated with vehicle were obtained on day 10 (basal pre-treatment). On days 11-13 mice received treatment with three different doses of 5-HT7 ligands following a Latin square design. Finally, on day 14 after surgery, baseline responses in vehicle-treated mice (basal post-treatment) were evaluated as an internal control to ensure that mechanical allodynia and thermal hyperalgesia were not influenced by previous treatments in the Latin square design.

h5-HT6 = h5-HT6 (Homo sapiens, UniProt P50406); assay: Radioligand binding assay, h5-HT6; details: h5-HT6; read-out: Affinity [ki (nM)]
h5-HT1D = h5-HT1D (Homo sapiens, UniProt P28221); assay: Radioligand binding assay, h5-HT1D; details: read-out: Affinity [ki (nM)]
h5-HT1F = biological target: T1, h5-HT1F (Homo sapiens, UniProt P30939); assay: Radioligand binding assay, h5-HT1F; details: read-out: Affinity [ki (nM)]
T1 sequence (P30939 1-366): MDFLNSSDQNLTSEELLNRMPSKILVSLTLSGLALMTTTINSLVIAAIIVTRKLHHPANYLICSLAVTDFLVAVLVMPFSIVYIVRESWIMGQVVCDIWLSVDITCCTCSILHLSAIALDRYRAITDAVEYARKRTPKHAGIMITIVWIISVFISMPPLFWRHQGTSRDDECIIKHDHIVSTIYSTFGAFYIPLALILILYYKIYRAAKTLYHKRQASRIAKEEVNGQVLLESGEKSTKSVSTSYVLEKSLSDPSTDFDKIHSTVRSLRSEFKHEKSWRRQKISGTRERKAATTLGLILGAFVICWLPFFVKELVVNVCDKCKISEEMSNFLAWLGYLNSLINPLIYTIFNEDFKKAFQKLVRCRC

[2] = test system: capsaicin-induced mechanical allodynia; assay: Capsaicin test, antiallodynic protocol (1 μg capsaicin, 1 g von Frey filament); details: for effect on capsaicin-induced mechanical allodynia: 1 g filament
Experimental: Animals were housed in groups of five, provided with food and water ad libitum and kept in controlled laboratory conditions with the temperature maintained at 21±1° C. and light in 12 h cycles (on at 07:00 h and off at 19:00 h). Experiments were carried out in a soundproof and air-regulated experimental room. The number of mice per group in each individual experiment was 16.
Capsaicin (8-methyl-N-vanillyl 6-nonamide) was dissolved in 1% DMSO (vehicle). […] Doses were calculated based on the molecular weight of the free base. All the compounds and vehicles (1% DMSO or physiological saline) were administered in a volume of 5 ml/kg through the subcutaneous (s.c.) route. When two compounds were co-administered, they were injected s.c. in opposite flanks of the mice.
Subplantar capsaicin injection initially evokes a nocifensive behavior that is characterized by lifting and guarding the injected paw and typically lasts up to 5 min following injection. […] In this study, sensitization by subplantar capsaicin injection was used to assess the effect of several 5-HT7 ligands on mechanical allodynia.
Drug treatments with 5-HT7 ligands were done 30 min before capsaicin injection and withdrawal latencies to a mechanical stimulus were determined 15 min after capsaicin injection (FIG. 1).
Mechanical allodynia was quantified by measuring the hind paw withdrawal response latency to von Frey filament stimulation. Mice were placed into compartment enclosures in a test chamber with a framed metal mesh floor and allowed to acclimate to their environment for 120 min before testing. […] The mechanical stimulus was applied to the plantar surface of the right, capsaicin-injected hind paw from below the mesh floor by using an automated testing device (dynamic plantar aesthesiometer; Ugo Basile, Italy) that lifts a straight filament (0.5 mm diameter). The filament exerted a fixed upward pressure (1 g or 0.25 g) on the plantar surface. When the animal withdrew its hind paw, the mechanical stimulus automatically stopped and the latency time was recorded. Latency was defined as the time from the onset of exposure to the filament to the cessation of the pressure when the sensor detected the withdrawal of the paw. A cut-off latency of 60 sec was imposed. Paw withdrawal latencies were measured in triplicate for each animal.
This approach enabled us to evaluate the possible antiallodynic effect of 5-HT7 ligands.
Data are presented as mean paw withdrawal latency responses in sec±S.E.M. Capsaicin-injected hind paw withdrawal responses to mechanical stimulation of treated mice were compared with those of untreated (vehicle-treated) mice. Statistical analysis to test intergroup comparisons was made using an initial one-way analysis of variance followed by the Newman-Keuls multiple comparison test. The level of significance was set at p<0.05.

h5-HT1A = biological target: T2, h5-HT1A (Homo sapiens, UniProt P08908); assay: Radioligand binding assay, h5-HT1A; details: h5-HT1A; read-out: Affinity [ki (nM)]
T2 sequence (P08908 1-422): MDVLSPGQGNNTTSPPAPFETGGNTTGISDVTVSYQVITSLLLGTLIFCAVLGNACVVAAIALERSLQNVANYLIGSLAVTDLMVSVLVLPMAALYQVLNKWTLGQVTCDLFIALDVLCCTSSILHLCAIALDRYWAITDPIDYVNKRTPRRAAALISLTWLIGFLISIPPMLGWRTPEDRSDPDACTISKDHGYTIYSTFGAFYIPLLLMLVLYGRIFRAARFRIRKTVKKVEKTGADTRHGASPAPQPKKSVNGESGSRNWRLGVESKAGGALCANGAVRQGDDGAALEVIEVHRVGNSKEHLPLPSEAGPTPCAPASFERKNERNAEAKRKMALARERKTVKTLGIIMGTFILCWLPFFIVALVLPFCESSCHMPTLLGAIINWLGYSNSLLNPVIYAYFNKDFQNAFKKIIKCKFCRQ

h5-HT2C = h5-HT2C (Homo sapiens, UniProt P28335); assay: Radioligand binding assay, h5-HT2C; details: h5-HT2C; read-out: Affinity [ki (nM)]
h5-HT2B = h5-HT2B (Homo sapiens, UniProt P41595); assay: Radioligand binding assay, h5-HT2B; details: h5-HT2B; read-out: Affinity [ki (nM)]
h5-HT2A = h5-HT2A (Homo sapiens, UniProt P28223); assay: Radioligand binding assay, h5-HT2A; details: read-out: Affinity [ki (nM)]
h5-HT1B = h5-HT1B (Homo sapiens, UniProt P28222); assay: Radioligand binding assay, h5-HT1B; details: read-out: Affinity [ki (nM)]
[3] = test system: mechanical allodynia induced by partial sciatic nerve ligation; assay: Partial sciatic nerve ligation, von Frey test (mechanical allodynia); type: in vivo, mice
Description: Mechanical allodynia was quantified by measuring the tactile threshold for hind paw withdrawal following von Frey filament stimulation. […] The filament exerted an increasing upward pressure on the plantar surface. The pressure increased linearly with time (0.1 g/s; from 0 to 5 g in 50 s) until the mouse withdrew its paw. […] A cut-off threshold of 5 g (50 s) was imposed.
The filament of 0.4 g was first used. […] This up-down procedure was stopped four measures after the first change in animal responding and the threshold of response was calculated. Clear paw withdrawal, shaking was considered as a nociceptive-like response.

[4] = test system: capsaicin-induced mechanical allodynia; assay: Capsaicin test, proallodynic protocol (4 ng capsaicin, 0.25 g von Frey filament); type: in vivo, mice; details: 0.25 g pressure
Experimental: Alternatively, in some experiments, only 4 ng (instead of 1 μg) of capsaicin were injected into the paw and the pressure exerted by the filament was reduced to 0.25 g (instead of 1 g). […] This approach was used to test the possibility that treatments could exert a proallodynic effect. The FIG. 1 summarizes the two different experimental approaches carried out in this study.

5-HT7 receptors = 5-HT7 receptors (Homo sapiens, UniProt P34969); details: Mahe et al., 2004; Romero et al., 2006; cited from earlier work
[5] = test system: sciatic nerve-ligatured rats; assay: Chronic constriction injury of the sciatic nerve (CCI-SN), Randall-Sellito test; details: antagonist i.p., 5a-MSD s.c.; sciatic nerve-ligated rats
Experimental: All compounds were prepared as aqueous solutions. […] When two compounds were co-administered, one was injected s.c. and the other i.p.
Briefly, the right common sciatic nerve was exposed at mid-tight level by blunt dissection through the biceps femoris muscle. Proximal to the trifurcation, ≈10 mm of nerve was freed from adhering tissue and four loose ligatures (5.0 chromic catgut) were tied around the sciatic nerve (≈1 mm apart). […] In sham-operated control rats, an identical dissection was performed on the right side allowing the sciatic nerve to be freed from surrounding tissue, but not ligatured. Finally, muscle and skin were closed in layers with silk thread.
Mechanical nociceptive thresholds, expressed as grams (g), were measured using the Randall-Sellito test (Ugo Basile analgesimeter; Bioseb, Chaville, France). An increasing pressure was applied to the nerve-injured hindpaw of unrestrained rats until paw withdrawal (PW) and then a squeak (i.e. the vocalization threshold when the paw was held under pressure) were obtained. As PW is a spinally coordinated reflex whereas vocalization is a supra-spinal integrated response (Kayser and Christensen, 2000), this test allowed assessment of the respective contribution of spinal versus supra-spinal mechanisms.

Sequence of h5-HT6 (P50406 whole entry): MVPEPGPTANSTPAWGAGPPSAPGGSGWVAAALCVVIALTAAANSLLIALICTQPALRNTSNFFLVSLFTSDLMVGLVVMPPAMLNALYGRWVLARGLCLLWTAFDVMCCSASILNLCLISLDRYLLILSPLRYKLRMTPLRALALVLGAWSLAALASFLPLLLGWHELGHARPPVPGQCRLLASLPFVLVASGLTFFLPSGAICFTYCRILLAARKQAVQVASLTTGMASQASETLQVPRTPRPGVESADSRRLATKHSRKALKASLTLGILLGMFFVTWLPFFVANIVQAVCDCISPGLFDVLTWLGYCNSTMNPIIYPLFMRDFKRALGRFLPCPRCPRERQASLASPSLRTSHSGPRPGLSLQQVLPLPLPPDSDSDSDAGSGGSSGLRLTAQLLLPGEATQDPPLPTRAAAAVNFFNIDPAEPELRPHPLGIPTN
Sequence of h5-HT1E (P28566 whole entry): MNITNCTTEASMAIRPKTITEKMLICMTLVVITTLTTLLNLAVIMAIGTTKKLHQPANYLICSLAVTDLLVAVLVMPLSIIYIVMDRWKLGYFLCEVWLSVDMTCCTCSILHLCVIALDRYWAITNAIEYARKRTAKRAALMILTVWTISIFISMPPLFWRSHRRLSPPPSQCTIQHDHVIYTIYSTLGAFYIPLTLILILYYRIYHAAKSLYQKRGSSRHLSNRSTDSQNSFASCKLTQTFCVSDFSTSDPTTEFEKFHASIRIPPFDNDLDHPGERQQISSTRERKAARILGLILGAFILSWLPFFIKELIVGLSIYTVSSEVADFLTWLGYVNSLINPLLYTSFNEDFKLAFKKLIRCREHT
Sequence of h5-HT1D (P28221 whole entry): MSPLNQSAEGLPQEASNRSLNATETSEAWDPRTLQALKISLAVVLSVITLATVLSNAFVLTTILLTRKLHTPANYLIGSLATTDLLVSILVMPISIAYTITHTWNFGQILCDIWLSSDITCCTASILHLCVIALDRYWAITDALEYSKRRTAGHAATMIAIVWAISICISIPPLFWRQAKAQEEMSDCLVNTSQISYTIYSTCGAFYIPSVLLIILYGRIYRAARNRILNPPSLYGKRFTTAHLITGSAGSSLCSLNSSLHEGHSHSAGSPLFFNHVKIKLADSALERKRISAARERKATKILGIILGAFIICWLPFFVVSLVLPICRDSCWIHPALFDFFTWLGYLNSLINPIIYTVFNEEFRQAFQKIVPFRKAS
Sequence of h5-HT2B (P41595 whole entry): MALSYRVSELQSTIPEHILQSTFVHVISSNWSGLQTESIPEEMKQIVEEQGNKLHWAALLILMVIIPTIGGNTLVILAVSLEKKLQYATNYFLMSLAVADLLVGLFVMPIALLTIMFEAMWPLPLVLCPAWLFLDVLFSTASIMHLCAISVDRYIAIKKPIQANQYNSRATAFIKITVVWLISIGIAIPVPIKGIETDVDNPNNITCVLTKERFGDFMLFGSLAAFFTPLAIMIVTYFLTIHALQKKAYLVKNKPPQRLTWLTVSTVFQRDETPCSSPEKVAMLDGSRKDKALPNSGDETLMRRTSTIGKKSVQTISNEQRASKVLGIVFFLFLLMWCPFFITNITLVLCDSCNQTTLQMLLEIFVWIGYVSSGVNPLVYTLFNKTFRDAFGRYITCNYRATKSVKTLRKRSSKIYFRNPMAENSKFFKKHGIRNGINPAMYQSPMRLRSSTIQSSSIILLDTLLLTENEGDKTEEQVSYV
Sequence of h5-HT2A (P28223 whole entry): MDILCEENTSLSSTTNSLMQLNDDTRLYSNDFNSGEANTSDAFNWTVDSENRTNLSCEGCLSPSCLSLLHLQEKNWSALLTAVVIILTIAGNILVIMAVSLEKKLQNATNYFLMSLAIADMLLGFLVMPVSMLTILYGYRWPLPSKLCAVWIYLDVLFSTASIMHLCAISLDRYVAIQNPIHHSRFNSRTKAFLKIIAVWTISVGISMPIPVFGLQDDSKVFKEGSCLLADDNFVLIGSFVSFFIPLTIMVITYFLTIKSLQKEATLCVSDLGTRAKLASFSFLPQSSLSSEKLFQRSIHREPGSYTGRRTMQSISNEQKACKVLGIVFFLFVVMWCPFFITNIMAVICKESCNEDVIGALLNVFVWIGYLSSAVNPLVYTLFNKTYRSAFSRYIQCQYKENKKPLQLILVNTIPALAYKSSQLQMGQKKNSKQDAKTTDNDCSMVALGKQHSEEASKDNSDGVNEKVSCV
Sequence of h5-HT7 (P34969 whole entry): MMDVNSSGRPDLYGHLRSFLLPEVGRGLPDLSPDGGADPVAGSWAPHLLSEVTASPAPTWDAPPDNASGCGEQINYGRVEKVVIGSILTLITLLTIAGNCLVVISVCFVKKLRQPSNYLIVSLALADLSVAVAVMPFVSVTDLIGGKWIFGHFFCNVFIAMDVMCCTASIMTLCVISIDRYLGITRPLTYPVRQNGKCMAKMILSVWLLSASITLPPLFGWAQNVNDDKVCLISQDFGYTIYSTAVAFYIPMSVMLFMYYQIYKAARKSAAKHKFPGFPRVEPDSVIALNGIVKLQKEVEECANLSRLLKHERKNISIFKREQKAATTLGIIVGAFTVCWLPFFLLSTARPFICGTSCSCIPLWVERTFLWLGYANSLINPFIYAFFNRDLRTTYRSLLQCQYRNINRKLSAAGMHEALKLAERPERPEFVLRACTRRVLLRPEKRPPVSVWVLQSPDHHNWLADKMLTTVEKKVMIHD
Sequence of 5-HT7 receptors (P34969 whole entry): as above
Sequence of h5-HT2C (P28335 33-458): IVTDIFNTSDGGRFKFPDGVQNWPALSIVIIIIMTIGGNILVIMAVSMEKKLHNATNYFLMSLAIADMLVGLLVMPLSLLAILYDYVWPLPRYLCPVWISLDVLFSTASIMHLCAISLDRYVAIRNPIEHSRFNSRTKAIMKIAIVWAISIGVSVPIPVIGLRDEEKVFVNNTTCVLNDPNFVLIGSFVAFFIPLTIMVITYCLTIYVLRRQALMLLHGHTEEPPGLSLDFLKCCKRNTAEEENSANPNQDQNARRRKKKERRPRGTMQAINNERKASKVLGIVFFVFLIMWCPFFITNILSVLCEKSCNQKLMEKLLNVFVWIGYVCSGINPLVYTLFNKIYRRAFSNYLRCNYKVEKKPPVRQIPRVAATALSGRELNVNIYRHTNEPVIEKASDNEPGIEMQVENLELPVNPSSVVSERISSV
Sequence of h5-HT1B (P28222 whole entry): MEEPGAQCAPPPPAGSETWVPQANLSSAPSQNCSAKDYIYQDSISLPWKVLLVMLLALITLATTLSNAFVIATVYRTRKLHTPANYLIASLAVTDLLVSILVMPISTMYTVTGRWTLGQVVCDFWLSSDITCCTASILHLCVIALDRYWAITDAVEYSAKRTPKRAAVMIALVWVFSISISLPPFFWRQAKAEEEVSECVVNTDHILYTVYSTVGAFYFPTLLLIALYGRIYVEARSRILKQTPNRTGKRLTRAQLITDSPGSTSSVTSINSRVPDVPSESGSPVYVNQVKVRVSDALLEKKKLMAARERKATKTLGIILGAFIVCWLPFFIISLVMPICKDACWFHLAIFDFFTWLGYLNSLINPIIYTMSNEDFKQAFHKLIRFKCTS

## Cc1cccc(S(=O)(=O)N(C)[C@H](C)CCN2CCC(C)CC2)c1 [SB-258719, (R)-3,N-Dimethyl-N-(1-methyl-3-(4-methylpiperidin-1-yl)propyl)benzene sulfonamide]
h5-HT1E
  Ki: > 1000 nM
h5-HT7
  Ki: 31.6 nM
[1]; 0.1-10 mg/kg s.c.
  effect on thermal hyperalgesia (paw withdrawal latency): did not exert any effects
[1]; SB-258719 5 mg/Kg + AS-19 5 mg/kg s.c., nerve-injured mice
  effect on the antihyperalgesic effect of AS-19 when co-administered: blocked significantely the antihyperalgesic effects
[1]; SB-258719 5 mg/Kg + MSD-5a 10 mg/kg s.c., nerve-injured mice
  effect on the antihyperalgesic effect of MSD-5a when co-administered: had a tendency to revert MSD-5a (10 mg/kg) without significancy
h5-HT6
  Ki: > 1000 nM
h5-HT1D
  Ki: > 1000 nM
h5-HT1F
  Ki: > 1000 nM
[2]; 20 mg/kg s.c.
  effect on capsaicin-induced mechanical allodynia: significantly increased paw withdrawal latencies
[2]; 2.5, 5 and 10 mg/kg s.c.
  effect on capsaicin-induced mechanical allodynia: unaffected
[2]; AS-19 at 5 and 10 mg/kg, WAY-100635 0.3 mg/kg or SB-258719 5 mg/kg s.c.
  effect on the antiallodynic effect of AS-19 when co-administered: abolished
[2]; SB-258719 5 mg/kg + MSD-5a 10 mg/kg s.c.
  effect on the antiallodynic effect of MSD-5a when co-administered: blocked this antiallodynic effect
[2]; SB-258719 2.5 and 5 mg/kg + AS-19 5 mg/kg s.c.
  effect on the antiallodynic effect of AS-19 when co-administered: dose-dependently inhibited
h5-HT1A
  Ki: > 1000 nM
h5-HT2C
  Ki: > 1000 nM
h5-HT2B
  Ki: > 1000 nM
h5-HT2A
  Ki: > 1000 nM
h5-HT1B
  Ki: > 1000 nM
[3]; 5 mg/Kg s.c., day 11, single dose design
  effect alone on mechanical allodynia, nerve-injured mice: had no antiallodynic effect
[3]; 10 mg/kg s.c., nerve-injured mice
  effect on mechanical threshold of the nerve-injured hind paw (proallodynic): significantly decreased the mechanical threshold
[3]; SB-258719 5 mg/Kg, AS-19 5 mg/kg, MSD-5a 10 mg/kg s.c., nerve-injured mice
  effect on the antiallodynic effect of AS-19 and MSD-5a when co-administered: able to reverse the antiallodynic effect
[3]; sham-operated, 10 mg/kg s.c.
  induction of mechanical allodynia in sham-operated mice: able to induce mechanical allodynia
[4]; 10 mg/Kg s.c.
  proallodynic effect (paw withdrawal latency): allodynia was evidenced
[4]; s.c.
  proallodynic effect, dose-response: dose-dependently promoted allodynia
5-HT7 receptors
  functionality at 5-HT7 receptor as described: pure antagonist
[5]
  effect on 5a-MSD-induced anti-hyperalgesia/anti-allodynia: Blockade
